{"source": "patent US7005449B2", "about": "“Tolterodine salts” (Pharmacia & Upjohn Company, priority 2002, dated 2006)", "key": {"[1]": {"assay": "Rotating disk dissolution of tolterodine salts", "type": "physicochemical", "details": "25° C.; for Rotating disk dissolution rate (RDDR): pH 6, 0.05 M phosphate buffer", "method": "Data was collected on the salts. Rotating disk dissolution data was collected at pH 6 in a 0.05 M phosphate buffer at 25° C. on a fiber optic apparatus."}, "[2]": {"assay": "Equilibrium solubility of tolterodine salts (shaking excess salt 24 hours, RP-HPLC)", "procedure": "The resultant solution is centrifuged at 5000 rpm for 30 min in a temperature-controlled centrifuge. The supernatant was diluted and analysed for tolterodine by reversed phase high performance liquid chromatography (RP-HPLC)."}, "[3]": {"assay": "Rotating disk dissolution of tolterodine salts", "type": "physicochemical", "details": "extrapolated from carbon chain length trend"}, "[4]": {"details": "traditional tablet administration; cited from earlier work"}}}
{"molecule": "maleate", "values": [{"measurement": "Rotating disk dissolution rate (RDDR)", "setting": "[1]", "value": 4.1, "unit": "μg cm^−2s^−1"}, {"measurement": "Equilibrium solubility in buffer", "setting": "[2]; 0.1 M phosphate buffer pH 7.4, 24 hours, room temperature", "value": 4700, "unit": "µg/mL"}, {"measurement": "final pH in buffer", "setting": "[2]; final pH of the buffer solubility sample", "value": 6.9}, {"measurement": "final pH in water", "setting": "[2]; final pH of the water solubility sample", "value": 5.0}, {"measurement": "Equilibrium solubility in water", "setting": "[2]; water, 24 hours, room temperature", "value": 1500, "unit": "µg/mL"}]}
{"molecule": "benzoate", "values": [{"measurement": "Rotating disk dissolution rate (RDDR)", "setting": "[1]", "value": 2.1, "unit": "μg cm^−2s^−1"}]}
{"molecule": "CCCCCCCCCCCCCC(=O)O.Cc1ccc(O)c(C(CCN(C(C)C)C(C)C)c2ccccc2)c1", "note": "(centres unmarked) [myristic (14 C)]", "values": [{"measurement": "predicted dissolution rate", "setting": "[3]", "value": "very low"}]}
{"molecule": "CCCCCCCCCCCCCCCC(=O)O.Cc1ccc(O)c(C(CCN(C(C)C)C(C)C)c2ccccc2)c1", "note": "(centres unmarked) [palmitic (16 C)]", "values": [{"measurement": "predicted dissolution rate", "setting": "[3]", "value": "very low"}]}
{"molecule": "fumarate", "values": [{"measurement": "Rotating disk dissolution rate (RDDR)", "setting": "[1]", "value": 2.6, "unit": "μg cm^−2s^−1"}]}
{"molecule": "Cc1ccc(O)c([C@H](CCN(C(C)C)C(C)C)c2ccccc2)c1", "note": "[tolterodine, 2-[(1R)-3-(diisopropylamino)-1-phenylpropyl]-4-methylphenol]", "values": [{"measurement": "time of peak plasma concentration", "setting": "[4]", "value": "1 to 2", "unit": "h"}]}
{"molecule": "Cc1ccc(O)c([C@H](CCN(C(C)C)C(C)C)c2ccccc2)c1.O=C(O)C(O)C(O)C(=O)O", "note": "[tartrate, tolterodine tartrate, reference compound]", "values": [{"measurement": "rotating disk dissolution rate", "setting": "[1]; pH 6 media", "value": 14, "unit": "μg cm^−2sec^−1"}, {"measurement": "Rotating disk dissolution rate (RDDR)", "setting": "[1]", "value": 14.0, "unit": "μg cm^−2s^−1"}]}
{"molecule": "CCCCCCCCCC(=O)O.Cc1ccc(O)c([C@H](CCN(C(C)C)C(C)C)c2ccccc2)c1", "note": "[caprate]", "values": [{"measurement": "Rotating disk dissolution rate (RDDR)", "setting": "[1]", "value": 0.75, "unit": "μg cm^−2s^−1"}]}
{"molecule": "tolterodine heptanoate", "values": [{"measurement": "Rotating disk dissolution rate (RDDR)", "setting": "[1]", "value": 2.7, "unit": "μg cm^−2s^−1"}]}
{"molecule": "Cc1ccc(O)c(C(CCN(C(C)C)C(C)C)c2ccccc2)c1.O=C(O)c1cc2ccccc2c(Cc2c(O)c(C(=O)O)cc3ccccc23)c1O", "note": "[pamoate, tolterodine pamoate]", "values": [{"measurement": "Rotating disk dissolution rate (RDDR)", "setting": "[1]", "value": "<0.3", "unit": "μg cm^−2s^−1"}, {"measurement": "Rotating disk dissolution rate (RDDR)", "setting": "[1]; listed as pamoate salt", "value": "less than the detection limit of the instrument"}]}
{"molecule": "laurate", "values": [{"measurement": "Rotating disk dissolution rate (RDDR)", "setting": "[1]", "value": 0.38, "unit": "μg cm^−2s^−1"}]}
